In patent US10815275B2, “Antimicrobial peptoids with improved selectivity and use thereof” (priority 2018, dated 2020):
No end group written: not given here.

Tests used:
red blood cells = assay: Hemolytic activity on red blood cells; format: cell-based, mouse
Method in brief: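 Washed mouse red blood cells (10% v/v in PBS, pH 7.4) incubated with peptoids for 1 h at 37 °C; released haemoglobin read at 540 nm. % hemolysis normalised to 0.1% Triton X-100 (100%) and PBS blank; HD10, HD50 derived, Hmax taken at 200 μM top concentration.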

[1] = Metabolic stability in human liver S9 fraction, HPLC; format: in vitro ADME; details: human, s9, pH 7.4
Method: In order to identify metabolic stability of the peptoids synthesized in Preparation Example 1, such peptoids were subjected to enzymatic reaction using S9 fraction which is a mixture of human liver tissue-extracted metabolic enzymes. Thereafter, for the reaction products, metabolites were quantitated using HPLC.
Specifically, Peptoid NOS. 1 and 4, and Pexiganan as a peptide control (40 μL each, 100 μM) were treated with […], 3.3 mM MgCl2, and 1.3 mM NADPH buffer (306 μL, pH=7.4), to prepare respective samples. The respective samples were treated with S9 fraction (2 μL, 0.1 mg/mL) and then incubated at a temperature of 37° C. When 0, 1, 4, and 24 hours had elapsed after treatment with the S9 fraction, 40 μL of each sample was taken out, and acetonitrile containing the same amount of 0.1% trifluoroacetic acid was used to stop activity of enzymes contained in the S9 fraction. Thereafter, proteins precipitated with acetonitrile were centrifuged at a condition of 1,000×g for 10 minutes at a temperature of 4° C. Then, supernatant was analyzed by HPLC to identify an amount of the remaining peptoid which had not been degraded by the enzymes in the S9 fraction.

B. subtilis = format: cell-based; details: 18 h
Method: In order to measure antimicrobial activity of the peptoids, Gram-positive B. subtilis or Gram-negative E. coli strain DH5α was treated with Peptoid NOS. 1, 18 to 23, and the peptide Pexiganan, and minimum inhibitory concentrations were measured. Peptoid NOS. 1 and 2, and the peptide Pexiganan are already known antimicrobial peptoids and peptides, and were used for the purpose of making a comparison with novel peptoids in terms of antimicrobial activity.
Specifically, B. subtilis or E. coli DHS a was inoculated into LB liquid medium, and cultured at a temperature of 37° C. for 18 hours. Thereafter, the bacteria were diluted with LB medium so that each bacterial number was 2×10^5 colony-forming units (CFU) per 1 mL, and dispensed into 96-well microtiter plates at 100 μL each. The peptoid, which is 2-fold serially diluted using sterile water, was added to each well at 100 μL each. The plates were incubated at a temperature of 37° C. for 18 hours.
Thereafter, absorbance was measured at a wavelength of 600 nm using a microplate reader (Bio-Rad). The lowest peptoid concentration that completely suppresses growth of microorganisms was measured by a minimum inhibitory concentration (MIC), and the measurement results are shown in Table 12 below. Each of the minimum inhibitory concentration values was calculated as an average value of numerical values obtained through three independent experiments.

MRCS cell line = assay: in vitro; format: cell-based; details: concentration indicating 50% survival, 24 h, MTS; read-out: LC50 (the source's name)
Method: In order to determine whether the peptoids were cytotoxic against human cell lines, […] cell line (Korean Cell Line Bank) which is a human lung cell line was cultured in a DMEM (Dulbecco's modified Eagle's medium) culture solution containing 10% (v/v) fetal bovine serum (FBS) at 5% CO2 and a temperature of 37° C. 100 μL of DMEM medium was dispensed into each well of a 96-well microtiter plate so that the number of cells was 1.3×10^4, and then incubated overnight at a temperature of 37° C. in a 5% CO2 incubator. In this case, a DMEM medium was used as a negative control. Thereafter, the peptoid which is 2-fold serially diluted using sterile water was added to each well, and then incubated for 24 hours.
After incubation, 20 μL of an MTS solution [3-(4,5-dimethylthiazol-2-yl)-5-(3-carboxymethoxyphenyl)-2-(4-sulfophenyl)-2H-tetrazolium, inner salt; MTS] was added thereto and incubated at a temperature of 37° C. for 4 hours. Thereafter, % survival was calculated by measuring absorbance at a wavelength of 490 nm using an ELISA reader. The % survival was calculated as a percentage obtained by dividing the absorbance value for a well-treated with the peptoid by the absorbance value for a well containing control cells which had not been treated with the peptoid.

Q: For “GIGKFLKKAKKFGKAFVKILKK-NH2 [Pexiganan, reference compound]”, which HD10 (red blood cells) is on record?
A: The HD10 was 113.4.

Q: What about the HD50 (red blood cells) of the same substance?
A: Its HD50 is > 200.

Q: What about the remaining at 24 h, 11.5 μM [1] of the same substance?
A: The remaining at 24 h, 11.5 μM was < 1%.

Q: What about the “MIC B. subtilis” value (B. subtilis) of the same substance?
A: Its value is 0.4 µM.

Q: What about the CC50 (MRCS cell line) of the same substance?
A: The CC50 was 21.2 µM.
